{"source": "patent US20220257622A1", "about": "“COMPOSITION FOR MAINTAINING LACTOBACILLUS DOMINANCE” (Kimberly-Clark Worldwide, Inc., priority 2015, published 2022)", "test_system": "L. crispatus and E. coli", "assay": "Therapeutic effect protocol: L. crispatus / E. coli co-culture in LAPT-g medium with carbon source", "type": "cell-based", "settings": "therapeutic agent (carbon source) 1 wt/vol %; co-culture incubated anaerobically at 37° C.; measured 36 hours after inoculation", "description": "Colonies of L. crispatus and E. coli were prepared as follows. A colony of L. crispatus was transferred to 7 ml MRS broth and incubated anaerobically (using BD GasPak EZ anaerobe container system with indicator) at 37° C. without shaking for 18-20 hours. A colony of E. coli was transferred to 5m1 TSB broth and incubated aerobically (shaking at 100 rpm) at 37° C. for 18-20 hours.\nColonies were then inoculated as follows. Bacterial cultures were gently vortexed and 1 mL of each culture was transferred to a corresponding 2.0 mL micro-centrifuge tube and then centrifuged for two minutes at 14,500 rpm. The cultural supernatant was removed and the cell pellet was re-suspended in 1 mL of 0.95% (wt/vol %) saline. The re-suspended colony was then centrifuged for two minutes at 14,500 rpms and the supernatant was removed. For L. crispatus, the pellet was re-suspended in 1 mL of 0.95% saline to achieve ˜10^7 -10^8 cfu/mL. For E. coli the pellet was re-suspended in 1 mL of 0.95% saline to achieve ˜10^8-10^9 cfu/mL.\nMedia were prepared as follows.\nAll of the ingredients in Table 1 were combined and the pH was adjusted to 6.5. The media were then autoclaved for 20 minutes at 125° C. To evaluate the effect of various saccharides and organic acids (noted as carbon sources below), the following samples were prepared:\nFive milliliters (5 mL) of each medium was transferred to a test tube in duplicates for subsequent inoculation. A master mixture of L. crispatus and E. coli, prepared as described above, was prepared in 1,000:1 ratio. Each (5 ml) test tube was inoculated with the master mixture to give 10^5-10^6 total CFU L. crispatus and 100-1,000 total CFU E. coli per tube.\nTo establish a negative control, one tube was vortexed and 100 μL was removed to determine the initial cell concentrations by serial dilutions and plating (2 plates per dilution). L. crispatus is selected on MRS agar plates incubated anaerobically at 37° C. for two days. E. coli is selected on TSA plates incubated aerobically at 37° C. for one day. The co-cultures were incubated in an anaerobic container with BD GasPaks at 37° C. for 36 hours.\nThe effect of the carbon source on the ratio of L. crispatus to E. coli was measured 36 hours after inoculation. The co-culture tube was vortexed and 100 μL was removed to determine the final cell concentrations by serial dilutions and plating (2 plates per dilution). L. crispatus is selected on MRS agar plates incubated anaerobically at 37° C. for two days. E. coli is selected on TSA plates incubated aerobically at 37° C. for one day.\nThe therapeutic effect of the formulation was then measured using the assay described above in the Test Methods section above. The therapeutic effect is summarized below as the ratio of L. crispatus to E. coli."}
{"compound": "OC[C@@H](O)[C@@H](O[C@H]1O[C@H](CO)[C@@H](O)[C@H](O)[C@H]1O)[C@H](O)[C@@H](O)CO", "note": "[Sample 4, Maltitol]", "values": [{"measurement": "L. crispatus/ E. coli ratio", "result": 202}]}
{"compound": "Palatinose [Sample 6]", "values": [{"measurement": "L. crispatus/ E. coli ratio", "result": 600}]}
{"compound": "OC[C@H]1O[C@@](CO)(O[C@H]2O[C@H](CO)[C@@H](O[C@H]3O[C@H](CO)[C@@H](O)[C@H](O)[C@H]3O)[C@H](O)[C@H]2O)[C@@H](O)[C@@H]1O", "note": "[Sample 3, Erlose]", "values": [{"measurement": "L. crispatus/ E. coli ratio", "result": 32.1}]}
{"compound": "OC[C@H]1O[C@@](CO)(OC[C@@]2(O[C@H]3O[C@H](CO)[C@@H](O)[C@H](O)[C@H]3O)O[C@H](CO)[C@@H](O)[C@@H]2O)[C@@H](O)[C@@H]1O", "note": "[Sample 1, 1-Kestose]", "values": [{"measurement": "L. crispatus/ E. coli ratio", "result": 640}]}
{"compound": "O=CC[C@H](O)[C@H](O)CO", "note": "[Sample 2, 2-Deoxy-D-Ribose]", "values": [{"measurement": "L. crispatus/ E. coli ratio", "result": 161}]}
{"compound": "Maltotriose [Sample 5]", "values": [{"measurement": "L. crispatus/ E. coli ratio", "result": 535}]}
